# Like-named read-outs stand apart in the source and are kept apart here.
# Assays:
# DCD gene = DCD gene expression by qPCR in SK-MEL-28; format: cell-based, Human; conditions: SK-MEL-28, 24 h
# Experimental: (§1) […] (2.5 × 10^5) cells in 1 mL of media were seeded in cell culture dishes and, 24 h later, treated with SQ1 (0.3 µM and 0.6 µM for SK-MEL-28 and 0.9 µM and 1.8 µM for SK-MEL-147) or SQ2 (0.05 µM and 0.1 µM for SK-MEL-28 and 0.6 µM and 1.2 µM for SK-MEL-147) for 24 h. Doxorubicin (DOX; 1.4 µM for SK-MEL-28 and 0.8 µM for SK-MEL-147) was used as positive control and 0.5% DMSO as negative control.
# Treated cells (Section 4.6) had their total RNA extracted and purified using TRIzol reagent (Thermo Fisher Scientific, San Jose, CA, USA), in accordance with the manufacturer’s recommendations. For analysis of DCD expression, purified total RNA was quantified using an Eon Microplate Spectrophotometer (BioTek Instruments, Winooski, VT, USA). Quantitative PCR (qPCR) was conducted on a Rotor Gene 6000 real-time cycler (Corbett Life Science, Sydney, NSW, Australia) using GoTaq 1-Step RT-qPCR System (Promega, Madison, WI, EUA). The cycle conditions were as follows: 45 °C for 10 min, 95 °C for 15 min and 40 cycles of 95 °C for 15 s; 60 °C for 60 s, followed by the melt. Relative expression was calculated using the comparative CT method Delta-Delta-Ct (DDCt). The primer sequences and concentrations utilized (DCD and RPLPO) can be consulted in Table S3.
# SK-MEL-28 = assay: Clonogenic assay; format: cell-based, Human; conditions: SK-MEL-28, 24 h treatment at half IC50 and IC50, 6 days in drug-free medium
# Experimental: as §1
# After the cells were submitted to the treatment scheme (Section 4.6), adherent cells were collected, plated at 1 × 10^3 cell/plate on 35-mm plates and maintained in culture for 6 days in treatment-free medium. The medium was replaced every 2 days. Cells were then fixed and stained with a solution of 20% MeOH (Synth, Diadema, São Paulo, Brazil) and 0.5 g crystal violet (Sigma-Aldrich, St. Louis, MO, USA). Images were acquired using G:BOX Chemi XRQ (Syngene, Cambridge, UK) and quantified using the ImageJ program (ColonyArea; US National Institutes of Health, Bethesda, MD, USA).
# [1] = set-up: method as in PMID 30783501; conditions: organic and aqueous media, cited from earlier work
# melanoma cells = assay: MTT cytotoxicity assay, melanoma panel; format: cell-based, Human
# From the text: Human cell lines were used throughout this program. SK-MEL-19 (melanoma BRAF^V600E, NRAS^WT), SK-MEL-28 (melanoma BRAF^V600E, NRAS^WT), SK-MEL-147 (melanoma BRAF^WT, NRAS^Q61R), MRC-5 (fibroblasts), and primary fibroblast (FDH) were kindly provided by Professor Glaucia Santelli (University of São Paulo, Brazil). MCF7 (breast adenocarcinoma, ATCC HTB-22), and HCT-116 (colorectal carcinoma, ATCC 247) cells were obtained from American Type Culture Collection (ATCC) and deposited in the Cell Bank of Rio de Janeiro, Brazil. WM293A (metastatic melanoma BRAF^V600D, NRAS^WT), 501mel (metastatic melanoma BRAF^V600E; NRAS^G12D), and MM200 (melanoma BRAF^V600E, NRAS^WT) were kindly provided by Professor Sharon Prince, University of Cape Town, South Africa. All human melanoma and breast cell lines were cultivated with Dulbecco’s Modified Eagle Medium: Nutrient Mixture F-12 (Thermo Fisher Scientific, San Jose, CA, USA). MM200 and HCT-116 were maintained with Roswell Park Memorial Institute (RPMI) medium (Thermo Fisher Scientific, San Jose, CA, USA). Unless stated otherwise, media was supplemented with 10% fetal bovine serum (FBS) and 1% penicillin-streptomycin (Thermo Fisher Scientific, San Jose, CA, USA). Cells were incubated with 5% CO2 at 37 °C. When required, cells were detached from flask using trypsin-EDTA 0.05% (Thermo Fisher Scientific, San Jose, CA, USA).
# Cytotoxic activity was evaluated by the transformation of 3-(4,5-dimethylthiazol-2-yl)-2,5-diphenyltetrazolium bromide (MTT; Thermo Fisher Scientific, San Jose, CA, USA) into formazan by viable cells. Cells were plated in a 96-well plate (1 × 10^4 cells/well) and, 24 h later, exposed to serial dilutions of the test compounds (from 0.00032 to 5.0 µM) for 24, 48, and 72 h. For each analysis, negative controls received 0.5% DMSO and positive control was delivered by doxorubicin (DOX; 0.05 to 10.0 µM). At the end of the incubation periods, the medium was replaced with fresh medium containing 0.5 mg/mL of MTT and supernatant was removed 3 h later. The plates were dried at 50 °C for 30 min and formazan was solubilized in DMSO (150 µL/well) for the absorbance measure at 570 nm on a plate reader (Thermo Fisher Scientific, San Jose, CA, USA). IC50 values (half-maximal inhibitory concentration) along with 95% CI (confidence intervals) were calculated by non-linear regression using GraphPad Prism 8.0 software (GraphPad Software, Inc., San Diego, CA, USA).
Structure (SMILES),DCD expression increase relative to control (DCD gene; 0.3 µM),DCD expression increase relative to control (DCD gene; 0.6 µM) [times],reduction of the colony levels (SK-MEL-28),solubility [1],solubility ([1]; listed as seriniquinone),DCD expression up-regulation relative to control (DCD gene; 0.1 µM),selectivity indices to SK-Mel cells in relation to non-tumor cell lines (melanoma cells; SK-Mel cells versus non-tumor cell lines),"selectivity for melanoma cells (SI ratio) (melanoma cells; melanoma cells versus non-tumor cell lines MRC-5 or FDH, highest values reached)"
"O=c1c2ccccc2c(=O)c2c1sc1c(=O)c3ccccc3c(=O)c12 [SQ1, seriniquinone]",twofold,20,greater than 50%,lack of solubility,poor water-solubility,–,–,–
CC(C)(O)C(O)CCc1ccc2c(=O)c3sc4c(=O)c5ccccc5c(=O)c4c3c(=O)c2c1 (stereo not drawn) [SQ2],–,–,–,improved solubility,–,three,≥ twofold,30–40
